Measurements published in PMC9315981, “N-Phenacyldibromobenzimidazoles—Synthesis Optimization and Evaluation of Their Cytotoxic Activity” (Molecules, 2022).
Where two headings read alike, the source gives them in different places.

Key:
[1] = system: CCRF-CEM (acute lymphoblastic leukemia); experiment: MTT-based viability assay, CCRF-CEM; type: cell-based, human; conditions: for EC50: Homo sapiens, CCRF-CEM, MTT, 48 h of treatment, read-out: EC50 ± SD, CCRF-CEM; for SI (selectivity index), CCRF-CEM: SI = EC50 for normal MRC-5 line/EC50 for CCRF-CEM
Description: (§1) To evaluate the cytotoxic activity of compounds 4a–j and 5a–5j, we performed an MTT test for three tumor cell lines, i.e.,: MCF-7 (breast adenocarcinoma), A-549 (lung adenocarcinoma), CCRF-CEM (acute lymphoblastic leukemia), and one normal cell line, MRC-5 (normal lung fibroblasts). The EC50 values, describing the half maximal effective concentration of each tested compound, were calculated and are summarized in Table 4. The representative sigmoidal dose–response curves are shown in Figure S2 (see Supporting Information S2).
(§2) CCRF-CEM (ECACC 85112105) human acute lymphoblastic leukaemia and MRC-5 pd30 Human fetal lung fibroblasts (ECACC 05090501) were purchased from European Collection of Authenticated Cell Cultures, whereas A-549 (ATCC CCL 185) human lung carcinoma and MCF-7 (ATCC HTB-22) human breast adenocarcinoma cell line were purchased from American Type Culture Collection. A-549 and MCF-7 cell lines were cultured in high glucose DMEM (Biowest) supplemented with 10% fetal bovine serum (Biowest), 2 mM L-glutamine and antibiotics (100 U/mL penicillin, 100 µg/mL streptomycin). CCRF-CEM were cultured in RPMI 1640 supplemented with 10% fetal bovine serum (EuroClone), 2 mM L-glutamine and antibiotics (100 U/mL penicillin, 100 µg/mL streptomycin). MRC-5 pd30 human fibroblasts (ECACC) were cultured in MEME, Minimum Essential Medium Eagle (Merck) supplemented with 10% fetal bovine serum (Merck), 2 mM l-glutamine, antibiotics (100 U mL^−1 penicillin, 100 μg mL^−1 streptomycin, Merck) and 1% non-essential amino-acids (Merck). Cells were grown in 75 cm^2 cell culture flasks (Sarstedt, Nümbrecht, Germany), in a humidified atmosphere of CO2/air (5/95%) at 37 °C. All the experiments were performed in exponentially growing cultures. Stock solution of tested compounds were prepared in DMSO and stored in −20 °C for maximum one month. For the cytotoxicity studies, stock solutions were diluted 200-fold with the proper culture medium to obtain the final concentrations. For cytotoxicity studies 2-fold serial dilutions of the tested compounds were prepared in the proper medium in the range from 3.125 µM to 200 µM.
(§3) After incubation with the test compounds, MTT test was performed as described previously. Optical densities were measured at 570 nm using BioTek microplate reader. All measurements were carried out in a minimum of three replicates.

[2] = system: MCF-7 (breast adenocarcinoma); experiment: MTT-based viability assay, MCF-7; type: cell-based, human; conditions: for EC50: Homo sapiens, MCF7, MTT, 48 h of treatment, read-out: EC50 ± SD, MCF-7; for SI (selectivity index), MCF-7: SI = EC50 for normal MRC-5 line/EC50 for MCF-7
Description: as §1, §2, §3

[3] = system: MRC-5 (normal lung fibroblasts); experiment: MTT-based viability assay, MRC-5; type: cell-based; conditions: Homo sapiens, MRC5, 48 h of treatment, read-out: EC50 ± SD, MRC-5
Description: as §1, §2, §3

[4] = system: A-549 (lung adenocarcinoma); experiment: MTT-based viability assay, A-549; type: cell-based; conditions: Homo sapiens, A549, 48 h of treatment, read-out: EC50 ± SD, A-549
Description: as §1, §2, §3

[5] = system: CCRF-CEM cells; experiment: Detection of apoptosis by flow cytometry (annexin V-FITC/PI); type: cell-based, human; conditions: 48 h; for induction of apoptosis: annexin V binding
Description: CCRF-CEM cells were seeded in 24-well plates at 2 × 10^5 cells/well and treated with the tested compounds used in 15 µM, 30 µM, and 45 µM concentrations. After exposure to the examined compounds, the cells were collected, centrifugated at 200× g at 4 °C for 5 min, washed twice with cold phosphate–buffered saline (PBS), and subsequently suspended in binding buffer. Subsequently, 100-μL aliquots of the cell suspension were labelled according to the kit manufacturer’s instructions. Briefly, annexin V-fluorescein isothiocyanate, and propidium iodide (BD Biosciences, Pharmingen, San Diego, CA, USA) were added to the cell suspension, and the mixture was vortexed and then incubated for 15 min at RT in the dark. A cold binding buffer (400 μL) was then added and the cells were vortexed again and kept on ice. Flow cytometric measurements were performed within 1 h after labeling. Viable, necrotic, early, and late apoptotic cells were detected by FACSCanto II flow cytometer (BD Biosciences, San Diego, CA, USA) and analysed using BD FACSDiva software.
Figure 2 Effect of compounds 4f, 5g, and 5j on the progression of apoptosis/necrosis in CCRF-CEM. Percentage of viable, early, and late apoptotic, and necrotic cells after 48 h of treatment with the tested compounds (A). Percentage of CCRF-CEM cells in late apoptosis (B). Cells were stained with annexin V-FITC and PI (propidium iodide). Flow cytometry analyses were run on FACSCanto II flow cytometer (BD Biosciences, San Diego, CA, USA) and analysed using BD FACSDiva software. Graphs represent mean values ± s.e.m. *** p < 0.001 relative to control; ns—not significant. Statistical analysis for three to six independent replicates was performed using a one-way ANOVA analysis (GraphPad Software Inc., San Diego, CA, USA).

[6] = Solubility in DMSO (stock preparation); type: physicochemical
From the text: However, among the tested compounds, the highest selectivity index was obtained for 5a (2.04) for MCF-7, respectively.

[7] = system: CCRF-CEM (acute lymphoblastic leukemia); set-up: method as in PMID 28340404; conditions: determined previously; read-out: EC50 ± SD, CCRF-CEM; cited from earlier work
[8] = system: MCF-7 (breast adenocarcinoma); set-up: method as in PMID 28340404; conditions: determined previously; read-out: EC50 ± SD, MCF-7; cited from earlier work

| SMILES | EC50 [1] [µM] | EC50 [2] [µM] | EC50 [4] [µM] | solubility in DMSO [6] | SI (selectivity index), CCRF-CEM [1] | SI (selectivity index), MCF-7 [2] | EC50 [3] [µM] | cells in late apoptosis ([5]; 30 µM, annexin V-FITC/PI) [%] | induction of apoptosis ([5]; 45 µM) | percent of apoptotic cells ([5]; 45 µM, annexin V-FITC/PI) [%] | EC50 [7] [µM] | EC50 [8] [µM] |
| --- | --- | --- | --- | --- | --- | --- | --- | --- | --- | --- | --- | --- |
| O=C(Cn1cnc2c(Br)cc(Br)cc21)c1ccc(Cl)c(Cl)c1 [Compound 5f] | 40.6 ± 2.39 | 32.8 ± 1.88 | 40 ± 5.78 | – | 1.06 | 1.32 | 43.2 ± 12.1 | – | – | – | – | – |
| O=C(Cn1cnc2cc(Br)c(Br)cc21)c1ccc(Cl)cc1 [Compound 4c] | 56.6 ± 4.48 | 49.1 ± 5.58 | 76.6 ± 3.08 | – | 0.96 | 1.10 | 54.24 ± 0.52 | – | – | – | – | – |
| O=C(Cn1cnc2cc(Br)c(Br)cc21)c1ccc(Cl)cc1Cl [Compound 4e] | 61.1 ± 2.76 | 60.3 ± 6.2 | 67.98 ± 0.41 | – | 0.94 | 0.95 | – | – | – | – | – | – |
| O=C(Cn1cnc2cc(Br)c(Br)cc21)c1c(Cl)cc(Cl)cc1Cl [Compound 4g] | – | 36.1 ± 1.47 | > 200 | – | – | 0.38 | 13.7 ± 0.63 | – | – | – | – | – |
| O=C(Cn1cnc2cc(Br)c(Br)cc21)c1ccc(Br)cc1 [Compound 4d] | – | – | – | sparingly soluble in DMSO | – | – | – | – | – | – | – | – |
| O=C(Cn1cnc2cc(Br)c(Br)cc21)c1ccc(Cl)c(Cl)c1 [Compound 4f, 2-(5,6-dibromo-1H-benzimidazol-1-yl)-1-(3,4-dichlorophenyl)ethanone] | 27.5 ± 2.46 | 26.4 ± 0.8 | 51.1 ± 2.78 | – | 1.76 | 1.84 | 48.5 ± 4.5 | – | induced apoptosis effectively | – | – | – |
| O=C(Cn1cnc2c(Br)cc(Br)cc21)c1c(F)cc(F)cc1F [Compound 5j, 2-(4,6-dibromo-1H-benzimidazol-1-yl)-1-(2,4,6-trifluorophenyl)ethanone] | 34.4 ± 2.3 | 42.2 ± 3.95 | 85.4 ± 3.16 | – | 1.77 | 1.45 | 61 ± 5.64 | – | induced apoptosis effectively | – | – | – |
| O=C(Cn1cnc2cc(Br)c(Br)cc21)c1c(F)cc(F)cc1F [Compound 4j] | 40.7 ± 1.03 | 37.6 ± 3.58 | 94.3 ± 6.47 | – | 1.20 | 1.30 | 48.8 ± 9.07 | – | – | – | – | – |
| O=C(Cn1cnc2c(Br)cc(Br)cc21)c1cc(F)ccc1F [Compound 5i] | 46.2 ± 3.24 | 44.8 ± 6.33 | 82.7 ± 10.6 | – | 1.04 | 1.07 | 48.07 ± 0.04 | – | – | – | – | – |
| O=C(Cn1cnc2c(Br)cc(Br)cc21)c1ccc(F)cc1F [Compound 5h] | 51.2 ± 1.06 | 37 ± 2.15 | 61.26 ± 0.45 | – | 0.89 | 1.23 | – | – | – | – | – | – |
| O=C(Cn1cnc2cc(Br)c(Br)cc21)c1cc(F)ccc1F [Compound 4i] | 102 ± 8.62 | 29.6 ± 2.24 | 37.9 ± 1.72 | – | 0.47 | 1.61 | 47.8 ± 12 | – | – | – | – | – |
| O=C(Cn1cnc2c(Br)cc(Br)cc21)c1ccccc1 [Compound 5a] | 183 ± 7.84 | 28.4 ± 1.11 | 81.2 ± 6.68 | – | 0.32 | 2.04 | 57.9 ± 0.88 | – | – | – | – | – |

Further compounds by falling EC50 [4], results first:

| EC50 [1] [µM] | EC50 [2] [µM] | EC50 [4] [µM] | solubility in DMSO [6] | SMILES | SI (selectivity index), CCRF-CEM [1] | SI (selectivity index), MCF-7 [2] | EC50 [3] [µM] | cells in late apoptosis ([5]; 30 µM, annexin V-FITC/PI) [%] | induction of apoptosis ([5]; 45 µM) | percent of apoptotic cells ([5]; 45 µM, annexin V-FITC/PI) [%] | EC50 [7] [µM] | EC50 [8] [µM] |
| --- | --- | --- | --- | --- | --- | --- | --- | --- | --- | --- | --- | --- |
| 78.1 ± 5.58 | 37.6 ± 3.4 | 111 ± 11.7 | – | O=C(Cn1cnc2cc(Br)c(Br)cc21)c1ccccc1 [Compound 4a] | 0.66 | 1.37 | 51.4 ± 1.62 | – | – | – | – | – |
| – | 45.93 ± 0.36 | 84.5 ± 3.09 | – | O=C(Cn1cnc2c(Br)cc(Br)cc21)c1ccc(F)cc1 [Compound 5b] | – | 1.07 | 49.2 ± 10.6 | – | – | – | – | – |
| 44.1 ± 3.04 | 33 ± 2.63 | 54.5 ± 1.58 | – | O=C(Cn1cnc2cc(Br)c(Br)cc21)c1ccc(F)cc1 [Compound 4b] | 1.27 | 1.70 | 56.1 ± 4.33 | – | – | – | – | – |
| 59.9 ± 4.4 | 41.2 ± 3.85 | 54.1 ± 4.05 | – | O=C(Cn1cnc2cc(Br)c(Br)cc21)c1ccc(F)cc1F [Compound 4h] | 0.96 | 1.40 | 57.6 ± 0.71 | – | – | – | – | – |
| 50.5 ± 1.52 | 27.8 ± 2.61 | 50.9 ± 2.84 | – | O=C(Cn1cnc2c(Br)cc(Br)cc21)c1ccc(Br)cc1 [Compound 5d, 1-(4-bromophenyl)-2-(4,6-dibromo-1H-benzimidazol-1-yl)ethanone] | 0.89 | 1.62 | 45.1 ± 5.73 | – | – | – | – | – |
| 42.5 ± 8.36 | 30.4 ± 2.31 | 46.7 ± 1.2 | – | O=C(Cn1cnc2c(Br)cc(Br)cc21)c1ccc(Cl)cc1 [Compound 5c] | 0.92 | 1.29 | 39.1 ± 8.41 | – | – | – | – | – |
| 38.4 ± 1.39 | 27.4 ± 1.57 | 46 ± 3.42 | – | O=C(Cn1cnc2c(Br)cc(Br)cc21)c1ccc(Cl)cc1Cl [Compound 5e] | 0.89 | 1.25 | 34.4 ± 7.83 | – | – | – | – | – |
| 26.6 ± 0.31 | 24 ± 2.33 | 41.3 ± 3.2 | – | O=C(Cn1cnc2c(Br)cc(Br)cc21)c1c(Cl)cc(Cl)cc1Cl [Compound 5g, 2-(4,6-dibromo-1H-benzimidazol-1-yl)-1-(2,4,6-trichlorophenyl)ethanone] | 1.01 | 1.12 | 26.9 ± 1.62 | 32 | induced apoptosis effectively | 75.6 | – | – |
| – | – | 36.4 ± 0.7 | – | Brc1c(Br)c(Br)c2[nH]cnc2c1Br [4,5,6,7-tetrabromo-1H-benzimidazole] | – | – | – | – | – | – | 18.1 ± 0.6 | 23.6 ± 0.1 |
